Experimental data reported in patent publication US7005533B2, “Bisphosphonate derivatives, their preparations and uses” (Universite Paris 13, priority 2001, dated 2006).

Legend:
A 431 tumors [1] = assay: In vivo growth of subcutaneous A 431 tumors in immunosuppressed mice; conditions: for inhibition of the growth of A 431 tumors: 0.6 mg/injection/mouse, twice weekly s.c. near the tumor, after 5 weeks of treatment, P<0.05
Method: A 431 cells were injected subcutaneously into immunosuppressed mice. The mice developed tumors within one week. Tumor-bearing mice were assigned randomly to a control group or to treatment groups receiving different concentrations of BP1 and BP2.
Mice received twice weekly by subcutaneous injection near the tumor either 0.1 ml of PBS alone for the controls (n=6), or PBS containing either BP1 or BP2 at the following doses: 0.006 (n=6); 0.06 (n=6) or 0.6 mg/injection (n=6). Tumors were measured weekly and their volume V calculated by the formula: V=(4/3)πR1^2R2 wherein R1 is radius 1 and R2 radius 2, with R1<R2.

[2] = Toxicity test in tumor-free immunosuppressed mice; type: in vivo; conditions: one injection per day for one week
Method: Tumor-free immunosuppressed mice were treated with BP1 and BP2 at doses ranging from 0.06 to 6 mg per injection and per animal. Mice received one injection per day for one week. Animals were weighed before, during and after treatment.

[3] = test system: MDA MB 435 human breast tumor cells; assay: MTT cell proliferation test, MDA MB 435 cells; type: cell-based; conditions: 2 mM, after 48 h of culture
Method: (§1) The bisphosphonates BP1 and BP2 were tested in different cell lines: • FRCjun MRA, a murine fibrosarcoma cell line produced by transfection of FR3T3 cells by the oncogene jun-4, • A 431 human carcinoma cells. These cells harbor a VEGF (vascular endothelial growth factor) autocrine loop and, after implantation in immunosuppressed mice, induce rapid development of highly angiogenic tumors. • MDA MB 435 human breast tumor cells, • HUV-EC-C, transformed human umbilical cord endothelial cells (HUVEC), • BBC, bovine cerebral capillary endothelial cells.
(§2) Cell proliferation in the presence of different concentrations of BP1 or BP2 was measured by an MTT test after 24, 48 and 72 h of culture.

A 431 tumors [4] = assay: Intratumoral angiogenesis of A 431 tumors (GSL 1 immunohistochemistry, image analysis); type: in vivo, mice; conditions: observed starting from the lowest doses (0.006 mg/injection)
Method: Animals were sacrificed and the tumors excised, then weighed, fixed, embedded in paraffin and sliced. Endothelial cells from tumor blood vessels laid down during tumor angiogenesis were visualized by immunohistochemical methods (GSL 1). Tumor angiogenesis was evaluated by image analysis with NIH image software.

[5] = test system: FRCjun MRA, a murine fibrosarcoma cell line; assay: MTT cell proliferation test, FRCjun MRA cells; type: cell-based; conditions: Mus musculus; 2 mM, after 48 h of culture, FRCjunMRA cells
Method: as §1, §2

[6] = test system: A 431 human carcinoma cells; assay: MTT cell proliferation test, A 431 cells; type: cell-based; conditions: 2 mM
Method: as §1, §2

[7] = Trypan blue exclusion test (cytotoxicity of BP1 and BP2); type: cell-based; conditions: even at concentrations above 5 mM
MCF7-ras tumors [8] = assay: Anti-angiogenic effect in MCF7-ras tumors, GSL1 lectin method; type: in vivo, mice
Method: The anti-angiogenic was verified by the GSL1 lectin method.
By using GSL1 lectin, angiogenesis is determined and identified by the red coloration staining of endothelial cells with anti-GSL1 antibody. It is noted that this angiogenesis is inhibited by the treatment of the tumors with phenylacetate bisphosphonate. This effect is partial but important (80%) at the 80 mg/kg dose. and complete at 160 mg/kg.

acute hepatitis = assay: Liver histology (HES) in nude mice having an acute hepatitis; type: in vivo; conditions: 80 mg/kg or 160 mg/kg s.c., twice a week for five weeks
Method: The study is carried out on nude mice having an acute hepatitis. The mice are divided in two groups, one being treated with sodium phenylacetate bisphosphonate, whilst the second is not. Phenylacetate bisphosphonate is administered to the treated mice sub-cutaneously (80 mg/kg or 160 mg/kg), twice a week for five weeks. The mice are sacrificed and the liver is histologically analyzed after HES (method of Hematoxiline Eosine Staining).

MCF7-ras cells [9] = assay: Apoptosis by Annexine V-FITC / propidium iodide, MCF7-ras cells; type: cell-based; conditions: 10 mM, after 4 hours of treatment
Method: (§3) In order to determine the nature of the toxicity of sodium phenylacetate bisphosphonate, MCF7 and MCF7-ras cells are cultivated, and then washed after 24 hours, and cultivated for 3 hours in DMEM medium with 10% of foetal calf serum. Phenylacetate bisphosphonate (10 mM) is added to one group but not to the other group. Apoptosis is determined by the test of Annexine V conjugated with FITC antibody. Propidium iodide is used in order to determine early apoptosis (positive staining for Annexine V and negative staining with propidium iodide) and late apoptosis (positive staining with Annexine V and with propidium iodide).

MCF7 cells [10] = assay: Apoptosis by Annexine V-FITC / propidium iodide, MCF7 cells; type: cell-based; conditions: 10 mM, after 4 hours of treatment
Method: as §3

MCF7-ras cells [11] = assay: DNA degradation (agarose gel electrophoresis), MCF7-ras cells; type: cell-based; conditions: 10 mM, after 96 hours
Method: (§4) The cell apoptosis is confirmed by the method of DNA degradation. MCF7 and MCF7-ras cells are cultivated (5×10^5 cells in T25 flasks). After 24 hours, the cells are washed, and then cultivated in DMEM medium with 10% of foetal calf serum; phenylacetate bisphosphonate (10 mM) is added to one group, and no phenylacetate bisphosphonate is added to the other group.
(§5) After 96 hours, the cell extract containing the fragmented DNA is incubated with 0.5 mg/ml of RNase A at 37° C. for one hour, then with 0.5 mg/ml of proteinase K for one hour at 37° C. After incubation, the fragmented DNA is precipitated by isopropanol and then dissolved in 10 mM of Tris-HCl (pH 8) […], 5% of glycerol and 0.05% bromophenol blue. The fragmented DNA separated by electrophoresis on agarose gel at 1% is marked with ethidium bromide and photographed in UV.

MCF7-ras cells [12] = assay: MCF7-ras cell growth and viability (Trypan blue test); type: cell-based; conditions: for toxicity (cell viability, Trypan blue): 8 and 10 mM
Method: MCF7-ras cells are cultivated (20,000 cells/well), on a dish of 24 wells. After incubation for 24 hours, the medium (DMEM with 10% foetal calf serum) is replaced with the same medium to which are added various concentrations of phenylacetate bisphosphonate (2 mM, 4 mM, 6 mM, 8 mM and 10 mM). The cells are incubated for 1 to 4 days at 37° C. The cell viability is controlled by the Trypan blue test.

MCF7-ras tumors [13] = assay: Pro-apoptotic effect in MCF7-ras tumors, M30 antibody staining; type: in vivo, mice
Description: Further, the proapoptotic effect of phenylacetate bisphosphonate is confirmed by the technique of antibody staining. The staining of apoptotic cells is made by the M30 antibody which recognises the specific site of caspases on the cytokeratine 18 filaments produced by the epithelial cells. Such filaments rapidly aggregate in the cells in early apoptosis, by hyperphosphorylation of cytokeratines. By this cytoplasmic staining, granular structures are observed inside the cytoplasm, which corresponds to cells in late apoptosis.

MCF7-ras tumors [14] = assay: In vivo antitumor effect on MCF7-ras tumors in female athymic nude mice
Method: Inoculation of 4×10^6 MCF7-ras cells in female athymic nude mice is made sub-cutaneously in a 0.1 ml volume of DMEM, which induces 70% of tumors after three weeks.
Treatment with phenylacetate bisphosphonate begun when the mean volume of the tumors was 550 mm^3. The animals are divided in two groups, on receiving phenylacetate bisphosphonate, and the other no. Phenylacetate bisphosphonate is injected sub-cutaneously and peritumorally, twice a week, during 5 weeks, and the doses are 80 mg/kg (5 cases) and 160 mg/kg (6 cases).

MCF7-ras cells [15] = assay: Reversibility of proliferation inhibition, tritiated thymidine incorporation; type: cell-based; conditions: 10 days treatment, thymidine after 15 days
Method: In order to check the reversibility of the effect of phenylacetate bisphosphonate, MCF7-ras cells have been treated with increasing concentrations of phenylacetate bisphosphonate for 10 days, the medium being changed every two days. The cells are divided in two groups. The DMEM medium supplemented with 10% of foetal calf serum is added to the first group, and the same medium with 10 mM of phenylacetate bisphosphonate is added to the second group, the medium being changed every two days. After 15 days, tritiated thymidine is added during 4 hours and the radioactivity of the suspension is determined by using a beta liquid scintigraphic counter (Beckman).

MCF7 cells [16] = assay: DNA degradation (agarose gel electrophoresis), MCF7 cells; type: cell-based; conditions: 10 mM, after 96 hours
Method: as §4, §5

## COP(=O)(O)C(O)(Cc1ccccc1)P(=O)(O)OC (centres unmarked) [BP2]
A 431 tumors [1]
  inhibition of the growth of A 431 tumors: 56%
A 431 tumors [1]; A 431 tumors in mice
  comparative in vivo efficacy: greater efficacy than BP1
[2]; all doses tested (0.06–6 mg/injection)
  signs of toxicity such as hair loss, diarrhea, infection or anemia: no signs of toxicity
[3]
  inhibition at 2000 µM: 60%
A 431 tumors [4]
  inhibition of intratumoral angiogenesis (endothelial cell area per unit of area): significant decrease in endothelial cell area per unit of area
[5]
  inhibition at 2000 µM: 40%
[6]; after 48 h of culture
  inhibition at 2000 µM: 30%
[6]; after 72 h, P<0.05
  inhibition at 2000 µM: 80%
[7]
  cytotoxicity (trypan blue exclusion): do not induce cytotoxicity

## O=P(O)(O)C(O)(Cc1ccccc1)P(=O)(O)O [BP1, reference compound]
A 431 tumors [1]
  inhibition of the growth of A 431 tumors: 40%
[2]; doses less than 6 mg/injection
  signs of toxicity such as hair loss, diarrhea, infection or anemia: no signs of toxicity
A 431 tumors [4]
  inhibition of intratumoral angiogenesis (endothelial cell area per unit of area): significant decrease in endothelial cell area per unit of area
[7]
  cytotoxicity (trypan blue exclusion): do not induce cytotoxicity

## O=P(O)(O)C(O)(Cc1ccccc1)P(=O)(O)O [phenylacetate bisphosphonate]
MCF7-ras tumors [8]; 80 mg/kg dose
  inhibition of tumor angiogenesis: 80%
MCF7-ras tumors [8]; 160 mg/kg
  inhibition of tumor angiogenesis: complete
Acute hepatitis
  hepatic toxicity noted in treated mice: 4 cases out of 5
MCF7-ras cells [9]; MCF7-ras cells
  percentage of cells in late apoptosis: 53%
MCF7-ras cells [9]; MCF7-ras compared with MCF7
  percentage of cells in early apoptosis: almost identical in the two cell types
MCF7 cells [10]; MCF7 cells
  percentage of cells in late apoptosis: 22%
MCF7 cells [10]; MCF7 compared with MCF7-ras
  percentage of cells in early apoptosis: almost identical in the two cell types
MCF7-ras cells [11]
  degradation of DNA: dramatic degradation of DNA
MCF7-ras cells [12]; by the fourth day of culture
  toxicity (cell viability, Trypan blue): 50–60%
MCF7-ras cells [12]; three first days of culture
  toxicity (cell viability, Trypan blue): 10%
MCF7-ras cells [12]; concentrations lower than 6 mM, three first days of culture
  effect on cell growth: cytostatic
MCF7-ras tumors [13]; 80 mg/kg dose
  state of tumor cells (M30 / cytokeratine 18 staining): apoptosis
MCF7-ras tumors [13]; 160 mg/kg dose
  state of tumor cells (M30 / cytokeratine 18 staining): aponecrosis
MCF7-ras tumors [14]; 80 mg/kg dose
  tumor growth when the treatment is stopped: tumor growth relapsed is observed
MCF7-ras tumors [14]; 160 mg/kg dose
  tumor growth when the treatment is stopped: blocked for at least three weeks
MCF7-ras tumors [14]; 80 and 160 mg/kg s.c. peritumorally, twice a week, 5 weeks, at the end of the treatment
  inhibition of the growth of the tumors: irreversible and dose dependent
MCF7-ras tumors [14]; even when the treatment is applied during a long period of time
  toxic effect in vivo: without any toxic affect
MCF7-ras tumors [14]; first five or six weeks of treatment
  proliferation of MCF7-ras cells and growth of mammary tumors in vivo: irreversibly blocks
MCF7-ras tumors [14]; treated MCF7-ras tumors
  immunohistologic analysis of the tumors: what the decrease in tumor growth is related to: induction of apoptosis, to a sharp decrease of angiogenesis of the tumor and induction of fibrose in the tumor
MCF7-ras cells [15]; dose above 4 mM
  reversibility of the inhibition of cell proliferation: irreversible
MCF7-ras cells [15]; dose of 2 mM
  reversibility of the inhibition of cell proliferation: partially reversible
MCF7 cells [16]
  degradation of DNA: dramatic degradation of DNA
